The term IC50 denotes the midpoint of a concentration-inhibition curve.

T1 sequence (Q9H3N8 whole entry): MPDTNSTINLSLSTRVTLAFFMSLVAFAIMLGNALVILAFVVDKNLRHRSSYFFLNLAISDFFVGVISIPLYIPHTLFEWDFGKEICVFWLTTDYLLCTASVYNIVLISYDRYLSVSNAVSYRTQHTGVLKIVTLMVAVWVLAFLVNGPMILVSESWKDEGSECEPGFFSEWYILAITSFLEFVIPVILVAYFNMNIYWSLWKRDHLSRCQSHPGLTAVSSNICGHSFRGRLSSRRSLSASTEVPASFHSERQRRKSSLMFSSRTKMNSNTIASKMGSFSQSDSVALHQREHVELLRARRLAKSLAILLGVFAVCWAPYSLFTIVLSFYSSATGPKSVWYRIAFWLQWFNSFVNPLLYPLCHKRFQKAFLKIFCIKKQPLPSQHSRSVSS

The experiment concerns the target T1, histamine H4 receptor (Homo sapiens, UniProt Q9H3N8).
T1 construct: expressed in transfected cells; host or cells: HEK293SFM cells (membrane preparation)
Nature of the experiment: H4 Membrane Binding Assay (3H-Histamine displacement). Particulars: membranes of recombinant HEK293SFM cells, 10 nM 3H-Histamine, 1.5 hr at room temperature. The protocol:
Recombinant HEK293SFM cells expressing human H1, H2, H3, H4 or mouse H4 were harvested (Packard Filtermate Harvester) in ice-cold Tris-HCl, (50 mM, pH 7.5, Sigma) with protease inhibitors (Roche) and homogenized with a Polytron homogenizer. The homogenate was centrifuged for 5 minutes at 1000 g to remove nuclei and unbroken cells. The supernatant was centrifuged at 50000 g for 30 minutes, and the resulting pellet was re-suspended in ice-cold Tris-HCl (50 mM, pH 7.5). […] Nonspecific binding was determined by inclusion of 1000× unlabeled ligands. The bound radioactivity was separated by filtration through polyethyleneimine-treated GF/B filters (Perkin Elmer). The filters were washed eight times with ice-cold Tris-HCl (50 mM, pH 7.5), and radioactivity retained on the filters was measured by liquid scintillation counting. The binding data were evaluated with Prism.
Regarding `CN1CCN(c2cc(-c3ccc4c(c3)CN(C(=O)N[C@H]3C[C@@H]3c3ccccc3)CC4)nc(N)n2)CC1` (relative stereo) [Example 49, 7-[2-Amino-6-(4-methylpiperazin-1-yl)pyrimidin-4-yl]-N-(trans-2-phenylcyclopropyl)-3,4-dihydroisoquinoline-2(1H)-carboxamide], the IC50 came to 47 nM. With `CCOC(=O)[C@@H]1CCCC[C@@H]1NC(=O)N1CCc2ccc(-c3cc(N4CCN(C)CC4)nc(N)n3)cc2C1` (relative stereo) [Example 53, Ethyl cis-2-({[7-[2-amino-6-(4-methylpiperazin-1-yl)pyrimidin-4-yl]-3,4-dihydroisoquinolin-2(1H)-yl]carbonyl}amino)cyclohexanecarboxylate] the figure was 107 nM. As for `CO[C@H]1CCCC[C@H]1NC(=O)N1CCc2ccc(-c3cc(N4CCN(C)CC4)nc(N)n3)cc2C1` (relative stereo) [Example 55, 7-[2-Amino-6-(4-methylpiperazin-1-yl)pyrimidin-4-yl]-N-(cis-2-methoxycyclohexyl)-3,4-dihydroisoquinoline-2(1H)-carboxamide], the IC50 stood at 120 nM. Consider `CCO[C@H]1CCCC[C@H]1NC(=O)N1CCc2ccc(-c3cc(N4CCN(C)CC4)nc(N)n3)cc2C1` (relative stereo) [Example 85, 7-[2-Amino-6-(4-methylpiperazin-1-yl)pyrimidin-4-yl]-N-[(cis)-2-ethoxycyclohexyl]-3,4-dihydroisoquinoline-2(1H)-carboxamide], for which the IC50 is 57 nM. On to `CN1CCN(c2cc(-c3ccc4c(c3)CN(C(=O)N[C@@H]3CCCC[C@@H]3OCC3CC3)CC4)nc(N)n2)CC1` (relative stereo) [Example 86], for which the IC50 worked out at 49 nM. With `CN1CCN(c2nc(N)nc3cc(C(=O)NC(Cc4ccc5c(c4)OC(F)(F)O5)C(=O)N(C)C)ccc23)CC1` (single isomer, unassigned) [Example 145A] the figure was 519 nM; with `CN1CCN(c2nc(N)nc3cc(C(=O)NC(Cc4ccc5c(c4)OC(F)(F)O5)C(=O)N(C)C)ccc23)CC1` (single isomer, unassigned) [Example 145B, 2-Amino-N-(3-(2,2-difluorobenzo[d][1,3]dioxol-5-yl)-1-(dimethylamino)-1-oxopropan-2-yl)-4-(4-methylpiperazin-1-yl)quinazoline-7-carboxamide], 26 nM.

As to `CN1CCN(c2cc(-c3ccc4c(c3)CN(C(=O)NC(Cc3ccccc3)C(=O)N(C)C)CC4)nc(N)n2)CC1` (stereo in doubt) [Example 60, 7-[2-Amino-6-(4-methylpiperazin-1-yl)pyrimidin-4-yl]-N-[(1R)-1-benzyl-2-(dimethylamino)-2-oxoethyl]-3,4-dihydroisoquinoline-2(1H)-carboxamide], the IC50 turned out to be 497 nM.

In the case of `CN1CCN(c2cc(-c3ccc4c(c3)CNCC4)nc(N)n2)CC1` [Example 1, 4-(4-Methylpiperazin-1-yl)-6-(1,2,3,4-tetrahydroisoquinolin-7-yl)pyrimidin-2-amine], the IC50 amounted to 198 nM. For the molecule `CN1CCN(c2cc(-c3ccc4c(c3)CN(C(=O)c3ccc(Cl)cc3)CC4)nc(N)n2)CC1` [Example 2, 4-[2-(4-Chlorobenzoyl)-1,2,3,4-tetrahydroisoquinolin-7-yl]-6-(4-methylpiperazin-1-yl)pyrimidin-2-amine], the 50% inhibitory concentration (IC50) was determined as 172 nM.

Take `CN1CCN(c2cc(-c3ccc4c(c3)CN(C(=O)C3CCC3)CC4)nc(N)n2)CC1` [Example 3, 4-[2-(Cyclobutylcarbonyl)-1,2,3,4-tetrahydroisoquinolin-7-yl]-6-(4-methylpiperazin-1-yl)pyrimidin-2-amine]: the IC50 came out at 170 nM. With `CN1CCN(c2cc(-c3ccc4c(c3)CN(S(=O)(=O)c3ccccc3)CC4)nc(N)n2)CC1` [Example 4, 4-(4-Methylpiperazin-1-yl)-6-[2-(phenylsulfonyl)-1,2,3,4-tetrahydroisoquinolin-7-yl]pyrimidin-2-amine] the figure was 267 nM; with `CN1CCN(c2cc(-c3ccc4c(c3)CN(C(=O)NC3CCCC3)CC4)nc(N)n2)CC1` [Example 5, 7-[2-Amino-6-(4-methylpiperazin-1-yl)pyrimidin-4-yl]-N-cyclopentyl-3,4-dihydroisoquinoline-2(1H)-carboxamide], 20.8 nM; with `CN1CCN(c2cc(-c3ccc4c(c3)CN(C(=O)Cc3ccccc3)CC4)nc(N)n2)CC1` [Example 6, 4-(4-Methylpiperazin-1-yl)-6-[2-(phenylacetyl)-1,2,3,4-tetrahydroisoquinolin-7-yl]pyrimidin-2-amine], 37.8 nM. The figure for `CN1CCN(c2cc(-c3ccc4c(c3)CN(C(=O)OC3CCCC3)CC4)nc(N)n2)CC1` [Example 7, Cyclopentyl 7-[2-amino-6-(4-methylpiperazin-1-yl)pyrimidin-4-yl]-3,4-dihydroisoquinoline-2(1H)-carboxylate] is 43.3 nM.

For `CN1CCN(c2cc(-c3ccc4c(c3)CN(C(=O)Nc3ccc(Cl)cc3)CC4)nc(N)n2)CC1` [Example 8, 7-[2-Amino-6-(4-methylpiperazin-1-yl)pyrimidin-4-yl]-N-(4-chlorophenyl)-3,4-dihydroisoquinoline-2(1H)-carboxamide], the IC50 was 13.2 nM. On to `CN1CCN(c2cc(-c3ccc4c(c3)CN(C(=O)N3CCCC3)CC4)nc(N)n2)CC1` [Example 9, 4-(4-Methylpiperazin-1-yl)-6-[2-(pyrrolidin-1-ylcarbonyl)-1,2,3,4-tetrahydroisoquinolin-7-yl]pyrimidin-2-amine], for which the IC50 was determined as 301 nM.

For `CC(C)COC(=O)N1CCc2ccc(-c3cc(N4CCN(C)CC4)nc(N)n3)cc2C1` [Example 10, Isobutyl 7-[2-amino-6-(4-methylpiperazin-1-yl)pyrimidin-4-yl]-3,4-dihydroisoquinoline-2(1H)-carboxylate], the IC50 came out at 53.4 nM. For `CC(C)OC(=O)N1CCc2ccc(-c3cc(N4CCN(C)CC4)nc(N)n3)cc2C1` [Example 11, Isopropyl 7-[2-amino-6-(4-methylpiperazin-1-yl)pyrimidin-4-yl]-3,4-dihydroisoquinoline-2(1H)-carboxylate], the half-inhibitory concentration (IC50) worked out at 43 nM. With `CN1CCN(c2cc(-c3ccc4c(c3)CN(C(=O)Nc3ccccc3)CC4)nc(N)n2)CC1` [Example 12, 7-[2-Amino-6-(4-methylpiperazin-1-yl)pyrimidin-4-yl]-N-phenyl-3,4-dihydroisoquinoline-2(1H)-carboxamide] the figure was 23.4 nM; with `CC(C)NC(=O)N1CCc2ccc(-c3cc(N4CCN(C)CC4)nc(N)n3)cc2C1` [Example 13, 7-[2-Amino-6-(4-methylpiperazin-1-yl)pyrimidin-4-yl]-N-isopropyl-3,4-dihydroisoquinoline-2(1H)-carboxamide], 57.2 nM. The figure for `CN1CCN(c2cc(-c3ccc4c(c3)CN(c3ccc(C#N)cc3)CC4)nc(N)n2)CC1` [Example 14, 4-{7-[2-Amino-6-(4-methylpiperazin-1-yl)pyrimidin-4-yl]-3,4-dihydroisoquinolin-2(1H)-yl}benzonitrile] is 23.1 nM; for `CN1CCN(c2cc(-c3ccc4c(c3)CN(c3ccc(C#N)c(F)c3)CC4)nc(N)n2)CC1` [Example 15, 4-{7-[2-Amino-6-(4-methylpiperazin-1-yl)pyrimidin-4-yl]-3,4-dihydroisoquinolin-2(1H)-yl}-2-fluorobenzonitrile] it is 39 nM. On to `CN1CCN(c2cc(-c3ccc4c(c3)CN(c3ccc(C#N)cn3)CC4)nc(N)n2)CC1` [Example 16, 6-{7-[2-Amino-6-(4-methylpiperazin-1-yl)pyrimidin-4-yl]-3,4-dihydroisoquinolin-2(1H)-yl}nicotinonitrile], for which the IC50 amounted to 48 nM. With `CNC(=O)c1ccc(N2CCc3ccc(-c4cc(N5CCN(C)CC5)nc(N)n4)cc3C2)cn1` [Example 17, 5-{7-[2-Amino-6-(4-methylpiperazin-1-yl)pyrimidin-4-yl]-3,4-dihydroisoquinolin-2(1H)-yl}-N-methylpyridine-2-carboxamide] the figure was 199 nM; with `CN1CCN(c2cc(-c3ccc4c(c3)CN(c3ccc(-c5ccc(C#N)cc5)cn3)CC4)nc(N)n2)CC1` [Example 18, 4-{6-[7-[2-Amino-6-(4-methylpiperazin-1-yl)pyrimidin-4-yl]-3,4-dihydroisoquinolin-2(1H)-yl]pyridin-3-yl}benzonitrile], 34 nM. The figure for `CNC(=O)c1ccc(-c2ccc(N3CCc4ccc(-c5cc(N6CCN(C)CC6)nc(N)n5)cc4C3)nc2)cc1` [Example 19, 4-{6-[7-[2-Amino-6-(4-methylpiperazin-1-yl)pyrimidin-4-yl]-3,4-dihydroisoquinolin-2(1H)-yl]pyridin-3-yl}-N-methylbenzamide] is 508 nM; for `CN1CCN(c2cc(-c3ccc4c(c3)CN(C(=O)Nc3cccc(Cl)c3)CC4)nc(N)n2)CC1` [Example 20, 7-[2-Amino-6-(4-methylpiperazin-1-yl)pyrimidin-4-yl]-N-(3-chlorophenyl)-3,4-dihydroisoquinoline-2(1H)-carboxamide] it is 19.6 nM. As for `C[C@@H](NC(=O)c1ccc2c(N3CCN(C)CC3)nc(N)nc2c1)c1ccc2ccccc2c1` [Example 21, (R)-2-Amino-4-(4-methylpiperazin-1-yl)-N-[1-(naphthalen-2-yl)ethyl]quinazoline-7-carboxamide], the IC50 turned out to be 105 nM.

Consider `C[C@H](NC(=O)c1ccc2c(N3CCN(C)CC3)nc(N)nc2c1)c1ccc2ccccc2c1` [Example 22, (S)-2-Amino-4-(4-methylpiperazin-1-yl)-N-(1-(naphthalen-2-yl)ethyl)quinazoline-7-carboxamide], for which the concentration for half-maximal inhibition (IC50) came out at 128 nM.

Values taken from patent US8481732B2 (Incyte Corporation, priority 2009, dated 2013).
